The record followed here is patent US12478634B2, “Compositions and methods for treating muscular dystrophy and other disorders” (The Charlotte Mecklenburg Hospital Authority, priority 2016, dated 2025).

In assay [1] the test system is epithelial cells. Put plainly: IIH6 membrane staining of glycosylated α-DG in treated epithelial cells. The assay is classed as cell-based. The note with it: 3 days culture with agent, vs control. The procedure:
The white lines represent the membrane staining with the antibody. […] Cells are grown in culture medium and active reagents were added one day later and culture for further 3 days with the described concentration. The cells were then washed, fixed and stained with IIH6 antibody for the expression of glycosylated a-DG. The positive signals present as membrane staining (white lines and circles here) which are only detected in the majority of the treated samples, but hardly seen in the control.

Another assay has as its system MCF-7 cells. Put plainly: FACS for expression of glycosylated alpha-DG after ribitol treatment. The assay is classed as cell-based. The note with it: MCF-7, 10 mM ribitol for 3 days; untreated controls 45%. As for the experimental part: FIG. 1. Fluorescence-activated cell sorting (FACS) for the enhanced expression of glycosylated alpha-DG after ribitol treatment. The breast cancer cell line MCF-7 was seeded in T25 culture flasks and cultured to 75% confluence in DMEM 10% FBS, and then treated with 10 mM ribitol in the same growth medium for 3 days. The cells were then collected by gentle scrapping and washed twice with PBS. The cells were resuspended in 100 microliter PBS and stained with monoclonal antibody IIH6 (Millipore EMD, 1:100 dilution) for 40 minutes and detected with secondary Alexa 594-labeled goat anti-mouse IgM (Invitrogen). The stained cells were washed and then FACS analyzed for the percentage of positive cells and the signal intensity (Alexa594.007). […]
Fluorescence-activated cell sorting (FACS) was used to show enhanced expression of glycosylated alpha-DG after ribitol treatment. […] The cells were resuspended in 100 microliter PBS and stained with monoclonal antibody IIH6 (Millipore EMD, 1:100 dilution) for 40 minutes and detected with secondary Alexa 594-labeled goat anti-mouse IgM (Invitrogen). The stained cells were washed and then FACS analyzed for the percentage of positive cells and the signal intensity (Alexa594.007). […]

Assay [2] deals with FKRP and LARGE transcripts. The experiment in a line: Quantitative real-time PCR of FKRP and LARGE transcripts. The assay is classed as in vivo, mouse. The note with it: cardiac muscle, limb muscle and diaphragm. The procedure:
Quantitative reverse transcriptase PCR assay. Tissues were collected from heart, diaphragm and tibialis anterior. RNA was extracted using TRIzol (Invitrogen) following the supplied protocol. Final RNA pellet was re-suspended in 20 μl RNAse-nuclease free water. Final RNA concentration was determined using Nanodrop 2000c. One […] of RNA was subsequently converted to cDNA using the High-Capacity RNA-to-cDNA™ Kit (Applied Biosystems) following the supplied protocol. cDNA was then used for quantitative real-time PCR using the mouse FKRP-FAM (Mm00557870 ml) and LARGE-FAM (Mm00521885_ml) taqman assay with primer limited GAPDH-VIC (Mm99999915_g1) as the internal control and TaqMan® Universal Master Mix II, with UNG (Life Technologies). […] Results of FKRP and LARGE transcript were calculated and expressed as 2^−ΔΔCt and compared across tissues and animals.

Assay [3] deals with epithelial cells. The experiment in a line: IIH6 blot of glycosylated α-DG from treated epithelial cells. It counts as cell-based. The note with it: 3 days culture with agent. The procedure:
Lane 1, control untreated cells; Lane 4, cells treated with ribulose-5-phosphate; Lane 5, cells treated with glucose. […] Cells are grown in culture medium and active reagents were added one day later and culture for further 3 days with the active agent. The cells were then collected, homogenized, blotted onto membrane and detected with 1H6 antibody for the expression of glycosylated a-DG. The black large spot represents the expression of the glycosylated a-DG, with higher intensity indicating higher levels.

For `Nc1ccn([C@@H]2O[C@H](COP(=O)(O)OP(=O)(O)OC[C@@H](O)[C@@H](O)[C@@H](O)CO)[C@@H](O)[C@H]2O)c(=O)n1` [CDP-ribitol], the “glycosylated α-DG membrane staining (IIH6)” value with epithelial cells [1] was “positive signals are identified in the majority of the cells”.
As for `OC[C@@H](O)[C@@H](O)[C@@H](O)CO` [ribitol], the “positive cells for glycosylated alpha-DG (IIH6 antibody)” value in the assay with MCF-7 cells is on record as 82%. Moreover, the “glycosylated α-DG membrane staining (IIH6)” value with epithelial cells [1] is recorded as “positive signals are identified in the majority of the cells”. The “FKRP and LARGE transcript levels, treated vs untreated” value in assay [2] is recorded as “No statistically significant difference”. Besides, the “functionally glycosylated alpha-DG on blot” value with epithelial cells [3] is “observed visually”.
As for `O=C(CO)[C@H](O)[C@H](O)COP(=O)(O)O` [ribulose-5-phosphate, reference compound], in the assay on epithelial cells [3], the “functionally glycosylated alpha-DG on blot” value is reported as “barely detectable”.
Turning to `O=C(CO)[C@H](O)[C@H](O)CO` [ribulose], the “glycosylated α-DG membrane staining (IIH6)” value with epithelial cells [1] was “positive signals are identified in the majority of the cells”. Further, in the assay with epithelial cells [3], the “functionally glycosylated alpha-DG on blot” value is on record as “observed visually”.
